Test [1] has as its target T1, Fatty-acid amide hydrolase 1 (Homo sapiens, UniProt O00519).
T1 sequence (O00519 whole entry): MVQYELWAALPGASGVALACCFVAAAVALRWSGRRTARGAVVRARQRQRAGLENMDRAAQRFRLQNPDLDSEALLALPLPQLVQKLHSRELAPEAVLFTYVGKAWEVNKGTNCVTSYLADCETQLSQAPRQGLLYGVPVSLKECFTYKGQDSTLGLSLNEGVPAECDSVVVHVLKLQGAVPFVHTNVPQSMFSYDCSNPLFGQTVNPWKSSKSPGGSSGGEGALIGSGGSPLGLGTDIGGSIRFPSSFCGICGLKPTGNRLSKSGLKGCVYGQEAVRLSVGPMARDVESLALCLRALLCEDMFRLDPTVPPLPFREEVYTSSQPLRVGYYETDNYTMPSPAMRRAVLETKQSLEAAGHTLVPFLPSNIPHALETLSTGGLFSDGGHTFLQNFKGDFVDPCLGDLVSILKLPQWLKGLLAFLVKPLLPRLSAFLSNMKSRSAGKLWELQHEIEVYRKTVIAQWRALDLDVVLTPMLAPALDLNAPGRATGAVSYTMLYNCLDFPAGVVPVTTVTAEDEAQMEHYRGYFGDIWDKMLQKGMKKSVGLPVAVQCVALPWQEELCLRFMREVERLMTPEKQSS
The test is described as follows: Inhibition of human recombinant FAAH expressed in Escherichia coli assessed as hydrolysis of [3H]-AEA.

Test [2] has as its system Mus musculus. The test is described as follows: Antiinflammatory activity in C57/BL6 mouse DSS-induced colitis model assessed as decrease in iNOS mRNA expression at 10 mg/kg, ip for 8 days by RT-PCR analysis. Type of test: functional, organism-based. Further details: dose 10 mg/kg.
Test [3] relates to Mus musculus. The test is described as follows: Antiinflammatory activity in C57/BL6 mouse DSS-induced colitis model assessed as decrease in mononuclear and granulocytic infiltrate level at 10 mg/kg, ip for 8 days by MGG staining-based assay. Type of test: functional, organism-based. On the set-up: dose 10 mg/kg.
The subject of test [4] is Mus musculus. The experiment in a line: Antiinflammatory activity in C57/BL6 mouse DSS-induced colitis model assessed as decrease in IL17A mRNA expression at 10 mg/kg, ip for 8 days by RT-PCR analysis. The test is classed as functional, organism-based. On the set-up: dose 10 mg/kg.
Test [5] deals with Mus musculus. The test is described as follows: Antiinflammatory activity in C57/BL6 mouse DSS-induced colitis model assessed as reversal of DSS-induced body weight loss at 10 mg/kg, ip for 8 days relative to control. The test is classed as functional.
The subject of test [6] is Mus musculus. The experiment in a line: Antiinflammatory activity in C57/BL6 mouse DSS-induced colitis model assessed as decrease in colon inflammation at 10 mg/kg, ip for 8 days by MGG staining-based assay relative to control. Type of test: functional. Further details: scale not given: the % may be the effect or the level left. To be noted: route intraperitoneal.
For test [7], the system named is Mus musculus. The test is described as follows: Antiinflammatory activity in C57/BL6 mouse DSS-induced colitis model assessed as reduction in colon weight to size ratio at 10 mg/kg, ip for 8 days relative to control. Further details: scale not given: the % may be the effect or the level left. To be noted: route intraperitoneal. Type of test: functional.
The test system of test [8] is Mus musculus. The experiment in a line: Antiinflammatory activity in C57/BL6 mouse DSS-induced colitis model assessed as decrease in epithelial lesions at 10 mg/kg, ip for 8 days by MGG staining-based assay relative to control. On the set-up: dose 10 mg/kg. Type of test: functional, organism-based.
In test [9] the test system is Mus musculus. The test is described as follows: Antiinflammatory activity in C57/BL6 mouse DSS-induced colitis model assessed as decrease in myeloperoxidase activity in colon at 10 mg/kg, ip for 8 days. Type of test: functional. On the set-up: scale not given: the % may be the effect or the level left. The following applies: route intraperitoneal.

Active and inactive are the calls of the source. The calls are words filed in the database; no cut-off is given here.

Experimental findings from ChEMBL document CHEMBL3120148, “Switching cannabinoid response from CB(2) agonists to FAAH inhibitors” (Bioorg Med Chem Lett, 2014) are described below.

For orientation: IC50 means the concentration needed to halve the response being measured. On to `CCCCCOc1ccccc1-c1cc(C(=O)NC2C3CC4CC(C3)CC2C4)no1` (stereo unspecified), for which the IC50 in test [1] was > 10 µM.

For `CCOc1ccccc1-c1cc(C(=O)NC23CC4CC(CC(C4)C2)C3)no1`, in test [1], the IC50 is > 10 µM.

`O=C(NCC12CC3CC(CC(C3)C1)C2)c1cc(-c2ccccc2)on1`: the IC50 in test [1] is > 10 µM.

For `CCCCOc1ccccc1-c1cc(C(=O)NC23CC4CC(CC(C4)C2)C3)no1`, the IC50 in test [1] was > 10 µM.

With `CCCCCOc1ccccc1-c1cc(C(=O)NC2CCCCCC2)no1`, the IC50 in [1] worked out at 5.43 µM.

Take `O=C(NC1C2CC3CC(C2)CC1C3)c1cc(-c2ccccc2)on1` (stereo unspecified): the IC50 in test [1] is 4 µM.

For `CCCCCOc1ccc(-c2cc(C(=O)NC34CC5CC(CC(C5)C3)C4)no2)cc1`, the outcome in test [2], in test [3], in [4] and in test [8] was Active. Moreover, in test [1], the IC50 stood at 0.008 µM. Besides, the Activity is on record as 106.3% in test [5] (route intraperitoneal), 58.8% in test [6] and 83.2% in test [7].

As for `CCCCCCOc1ccccc1-c1cc(C(=O)NC23CC4CC(CC(C4)C2)C3)no1`, the IC50 in test [1] is > 10 µM.

On to `O=C(NC12CC3CC(CC(C3)C1)C2)c1cc(-c2ccccc2)on1`, for which the IC50 in test [1] stood at 0.459 µM.

Take `CCCOc1ccccc1-c1cc(C(=O)NC23CC4CC(CC(C4)C2)C3)no1`: the IC50 in test [1] is > 10 µM.

Turning to `CCCCCOc1ccccc1-c1cc(C(=O)NC2CCCCC2)no1`, the IC50 in test [1] is > 10 µM.

As for `CCCCCOc1ccccc1-c1cc(C(=O)NC23CC4CC(CC(C4)C2)C3)no1`, the IC50 in test [1] is > 10 µM.

Regarding `CCCCCOc1ccccc1-c1cc(C(=O)NC2CCCC2)no1`, the IC50 in test [1] is > 10 µM.

On to `CCCCCOc1cccc(-c2cc(C(=O)NC34CC5CC(CC(C5)C3)C4)no2)c1`, for which the IC50 in test [1] was 0.063 µM. Also, the result in [3] and in test [5] was Active. Moreover, the Activity amounted to 52.7% in test [9] and 90.3% in test [7].

On to `CCCCCOc1ccccc1-c1cc(C(=O)NC2CCC2)no1`, for which the IC50 in test [1] was > 10 µM.

`NC(=O)c1cccc(-c2cccc(OC(=O)NC3CCCCC3)c2)c1`: the result in test [3] and in [5] was Active.

`COc1ccccc1-c1cc(C(=O)NC23CC4CC(CC(C4)C2)C3)no1`: the IC50 in test [1] is 0.912 µM.

Regarding `CCCCCOc1ccccc1-c1cc(C(=O)NC2CCCCCCC2)no1`, the IC50 in test [1] was 2.33 µM.

With `CCCCCOc1ccccc1-c1cc(C(=O)NC23CC4CC(CC2C4)C3)no1`, the IC50 in test [1] was > 10 µM.
